Laboratory results taken from patent publication US9969694B2, “N-(arylalkyl)-N′-pyrazolyl-urea, thiourea, guanidine and cyanoguanidine compounds as TrkA kinase inhibitors” (Array BioPharma Inc., priority 2012, dated 2018).
One block for each compound: values may come before it.

Legend:
Test in all cases: Off-Target Kinase Profiling
Format in all cases: biochemical
Settings in all cases: 10 μM; ATP near Km
[1] = target: T1, Pim-1 (Homo sapiens, UniProt P11309)
T1 construct: purchased Millipore, Inc. (KinaseProfiler service)
Protocol: (§1) Representative compounds of the invention (Examples 33 and 10) were tested for off-target kinase activity at a concentration of 10 μM by Millipore, Inc. in their KinaseProfiler™ service against all the kinases available in their full kinase panel. Compounds were run in duplicate at a concentration of ATP near the Km for each individual kinase according to Millipore's specifications. The results are shown in Table B. Data are reported as percent of control (POC) and are the average of the two replicates.

[2] = target: T2, Ret (Homo sapiens, UniProt P07949)
T2 construct: purchased Millipore, Inc. (KinaseProfiler service)
Protocol: as §1

[3] = target: T3, NEK7 (Homo sapiens, UniProt Q8TDX7)
T3 construct: purchased Millipore, Inc. (KinaseProfiler service)
Protocol: as §1

[4] = target: T4, TAO2 (Homo sapiens, UniProt Q9UL54)
T4 construct: purchased Millipore, Inc. (KinaseProfiler service)
Protocol: as §1

[5] = tested on: CK1_y
Protocol: as §1

[6] = target: T5, MST3 (Homo sapiens, UniProt Q9Y6E0)
T5 construct: purchased Millipore, Inc. (KinaseProfiler service)
Protocol: as §1

[7] = target: T6, EphA1 (Homo sapiens, UniProt P21709)
T6 construct: purchased Millipore, Inc. (KinaseProfiler service)
Protocol: as §1

[8] = target: T7, FGFR2 (Homo sapiens, UniProt P21802)
T7 construct: purchased Millipore, Inc. (KinaseProfiler service)
Protocol: as §1

[9] = target: T8, ARK5 (Homo sapiens, UniProt O60285)
T8 construct: purchased Millipore (KinaseProfiler service)
Protocol: as §1

[10] = target: T9, Hck (Homo sapiens, UniProt P08631)
T9 construct: purchased Millipore, Inc. (KinaseProfiler service)
Protocol: as §1

[11] = target: T10, Flt4 (Homo sapiens, UniProt P35916)
T10 construct: purchased Millipore, Inc. (KinaseProfiler service)
Protocol: as §1

[12] = target: T11, p38delta (Homo sapiens, UniProt O15264)
T11 construct: purchased Millipore, Inc. (KinaseProfiler service)
Protocol: as §1

[13] = target: T12, Rsk4 (Homo sapiens, UniProt Q9UK32)
T12 construct: purchased Millipore, Inc. (KinaseProfiler service)
Protocol: as §1

[14] = target: T13, PKCtheta (Homo sapiens, UniProt Q04759)
T13 construct: purchased Millipore, Inc. (KinaseProfiler service)
Protocol: as §1

[15] = target: T14, AKT1 (Homo sapiens, UniProt P31749)
T14 construct: purchased Millipore (KinaseProfiler service)
Protocol: as §1

[16] = target: T15, MKK7beta (Homo sapiens, UniProt O14733)
T15 construct: purchased Millipore, Inc. (KinaseProfiler service)
Protocol: as §1

[17] = target: T16, CDK2/cyclinA (Homo sapiens, UniProt P24941)
T16 construct: purchased Millipore (KinaseProfiler service)
Protocol: as §1

[18] = target: T17, Tie2 (Homo sapiens, UniProt Q02763)
T17 construct: purchased Millipore, Inc. (KinaseProfiler service)
Protocol: as §1

[19] = target: T18, Met (Homo sapiens, UniProt P08581)
T18 construct: purchased Millipore, Inc. (KinaseProfiler service)
Protocol: as §1

[20] = target: T19, PRKG1beta (Homo sapiens, UniProt Q13976)
T19 construct: purchased Millipore, Inc. (KinaseProfiler service)
Protocol: as §1

[21] = target: T20, PTK5 (Homo sapiens, UniProt P42685)
T20 construct: purchased Millipore, Inc. (KinaseProfiler service)
Protocol: as §1

[22] = target: T21, CAMK1d (Homo sapiens, UniProt Q8IU85)
T21 construct: purchased Millipore (KinaseProfiler service)
Protocol: as §1

[23] = target: T22, FAK2 (Homo sapiens, UniProt Q14289)
T22 construct: purchased Millipore, Inc. (KinaseProfiler service)
Protocol: as §1

[24] = target: T23, Ron (Homo sapiens, UniProt Q04912)
T23 construct: purchased Millipore, Inc. (KinaseProfiler service)
Protocol: as §1

[25] = target: T24, Yes (Homo sapiens, UniProt P07947)
T24 construct: purchased Millipore, Inc. (KinaseProfiler service)
Protocol: as §1

[26] = target: T25, CAMK2b (Homo sapiens, UniProt Q13554)
T25 construct: purchased Millipore (KinaseProfiler service)
Protocol: as §1

[27] = target: T26, ALK (Homo sapiens, UniProt Q9UM73)
T26 construct: purchased Millipore (KinaseProfiler service)
Protocol: as §1

[28] = target: T27, CSK (Homo sapiens, UniProt P41240)
T27 construct: purchased Millipore, Inc. (KinaseProfiler service)
Protocol: as §1

[29] = target: T28, CAMK2d (Homo sapiens, UniProt Q13557)
T28 construct: purchased Millipore (KinaseProfiler service)
Protocol: as §1

[30] = target: T29, DDR2 (Homo sapiens, UniProt Q16832)
T29 construct: purchased Millipore, Inc. (KinaseProfiler service)
Protocol: as §1

[31] = target: T30, VRK2 (Homo sapiens, UniProt Q86Y07)
T30 construct: purchased Millipore, Inc. (KinaseProfiler service)
Protocol: as §1

[32] = target: T31, CK1delta (Homo sapiens, UniProt P48730)
T31 construct: purchased Millipore, Inc. (KinaseProfiler service)
Protocol: as §1

[33] = target: T32, TSSK1 (Homo sapiens, UniProt Q9BXA7)
T32 construct: purchased Millipore, Inc. (KinaseProfiler service)
Protocol: as §1

[34] = target: T33, MRCKbeta (Homo sapiens, UniProt Q9Y5S2)
T33 construct: purchased Millipore, Inc. (KinaseProfiler service)
Protocol: as §1

[35] = target: T34, Fyn (Homo sapiens, UniProt P06241)
T34 construct: purchased Millipore, Inc. (KinaseProfiler service)
Protocol: as §1

[36] = target: T35, MAPKAP-K5 (Homo sapiens, UniProt Q8IW41)
T35 construct: purchased Millipore, Inc. (KinaseProfiler service)
Protocol: as §1

[37] = tested on: c-RAF
Protocol: as §1

[38] = target: T36, WNK2 (Homo sapiens, UniProt Q9Y3S1)
T36 construct: purchased Millipore, Inc. (KinaseProfiler service)
Protocol: as §1

[39] = target: T37, IKKalpha (Homo sapiens, UniProt O15111)
T37 construct: purchased Millipore, Inc. (KinaseProfiler service)
Protocol: as §1

[40] = target: T38, eEF-2K (Homo sapiens, UniProt O00418)
T38 construct: purchased Millipore, Inc. (KinaseProfiler service)
Protocol: as §1

[41] = target: T39, EphA2 (Homo sapiens, UniProt P29317)
T39 construct: purchased Millipore, Inc. (KinaseProfiler service)
Protocol: as §1

[42] = target: T40, ROCK-II (Homo sapiens, UniProt O75116)
T40 construct: purchased Millipore, Inc. (KinaseProfiler service)
Protocol: as §1

T22 sequence (Q14289 whole entry): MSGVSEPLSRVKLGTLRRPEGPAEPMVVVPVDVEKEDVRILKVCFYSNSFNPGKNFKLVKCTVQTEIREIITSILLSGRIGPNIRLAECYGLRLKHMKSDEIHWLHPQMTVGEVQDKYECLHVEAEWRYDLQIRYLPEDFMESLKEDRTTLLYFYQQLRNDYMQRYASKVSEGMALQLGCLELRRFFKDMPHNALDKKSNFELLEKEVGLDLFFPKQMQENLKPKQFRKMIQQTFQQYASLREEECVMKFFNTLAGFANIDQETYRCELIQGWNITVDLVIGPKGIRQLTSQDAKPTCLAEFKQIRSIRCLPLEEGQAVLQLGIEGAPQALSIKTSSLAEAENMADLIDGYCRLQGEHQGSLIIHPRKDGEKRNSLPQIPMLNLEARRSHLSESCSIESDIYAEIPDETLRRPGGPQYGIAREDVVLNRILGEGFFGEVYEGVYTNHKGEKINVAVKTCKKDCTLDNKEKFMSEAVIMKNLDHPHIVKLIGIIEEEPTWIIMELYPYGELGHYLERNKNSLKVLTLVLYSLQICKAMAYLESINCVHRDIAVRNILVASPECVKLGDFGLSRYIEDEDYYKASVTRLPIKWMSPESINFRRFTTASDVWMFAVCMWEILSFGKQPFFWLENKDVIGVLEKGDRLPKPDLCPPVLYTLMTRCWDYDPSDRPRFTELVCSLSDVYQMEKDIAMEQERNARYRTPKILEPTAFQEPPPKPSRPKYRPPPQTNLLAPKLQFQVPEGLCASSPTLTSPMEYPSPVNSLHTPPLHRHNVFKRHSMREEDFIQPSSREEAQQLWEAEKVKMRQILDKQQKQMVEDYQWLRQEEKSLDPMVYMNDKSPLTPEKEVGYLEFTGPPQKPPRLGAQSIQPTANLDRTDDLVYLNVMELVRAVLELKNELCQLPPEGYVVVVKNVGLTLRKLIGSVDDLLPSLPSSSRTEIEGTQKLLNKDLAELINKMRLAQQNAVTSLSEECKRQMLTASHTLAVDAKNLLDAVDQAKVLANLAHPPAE
T10 sequence (P35916 25-1363): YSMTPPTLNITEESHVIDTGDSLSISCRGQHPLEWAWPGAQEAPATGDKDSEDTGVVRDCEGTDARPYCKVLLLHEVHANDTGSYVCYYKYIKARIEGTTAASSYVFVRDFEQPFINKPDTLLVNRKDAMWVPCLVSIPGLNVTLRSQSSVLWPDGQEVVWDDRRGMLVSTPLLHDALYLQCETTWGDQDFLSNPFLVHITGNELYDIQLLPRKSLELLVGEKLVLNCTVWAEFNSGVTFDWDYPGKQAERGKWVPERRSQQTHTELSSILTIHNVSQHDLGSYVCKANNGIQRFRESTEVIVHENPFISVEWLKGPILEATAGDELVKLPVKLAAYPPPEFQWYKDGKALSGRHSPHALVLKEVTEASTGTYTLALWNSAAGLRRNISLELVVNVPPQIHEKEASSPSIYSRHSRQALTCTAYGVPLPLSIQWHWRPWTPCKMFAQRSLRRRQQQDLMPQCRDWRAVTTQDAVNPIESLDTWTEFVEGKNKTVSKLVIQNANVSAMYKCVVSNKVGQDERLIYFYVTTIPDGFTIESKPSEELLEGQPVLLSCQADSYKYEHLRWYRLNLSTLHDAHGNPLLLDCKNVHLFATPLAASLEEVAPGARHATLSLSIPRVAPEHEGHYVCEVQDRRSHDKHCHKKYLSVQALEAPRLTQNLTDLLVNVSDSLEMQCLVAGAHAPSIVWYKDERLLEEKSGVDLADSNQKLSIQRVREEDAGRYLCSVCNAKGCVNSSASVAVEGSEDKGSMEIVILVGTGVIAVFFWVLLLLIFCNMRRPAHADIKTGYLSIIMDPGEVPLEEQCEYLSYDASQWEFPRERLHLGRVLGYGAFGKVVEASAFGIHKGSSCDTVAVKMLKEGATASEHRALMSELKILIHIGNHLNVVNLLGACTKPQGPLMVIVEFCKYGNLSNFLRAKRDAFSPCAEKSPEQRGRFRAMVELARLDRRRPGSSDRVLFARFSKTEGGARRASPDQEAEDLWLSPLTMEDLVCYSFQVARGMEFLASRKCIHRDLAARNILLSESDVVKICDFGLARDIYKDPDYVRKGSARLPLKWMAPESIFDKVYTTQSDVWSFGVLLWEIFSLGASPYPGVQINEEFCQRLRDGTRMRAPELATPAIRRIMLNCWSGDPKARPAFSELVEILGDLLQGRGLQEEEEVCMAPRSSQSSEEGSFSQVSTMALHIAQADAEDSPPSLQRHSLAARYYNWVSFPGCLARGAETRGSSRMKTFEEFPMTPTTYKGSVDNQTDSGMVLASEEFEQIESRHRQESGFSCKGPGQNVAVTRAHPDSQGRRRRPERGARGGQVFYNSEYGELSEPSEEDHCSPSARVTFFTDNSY
T14 sequence (P31749 whole entry): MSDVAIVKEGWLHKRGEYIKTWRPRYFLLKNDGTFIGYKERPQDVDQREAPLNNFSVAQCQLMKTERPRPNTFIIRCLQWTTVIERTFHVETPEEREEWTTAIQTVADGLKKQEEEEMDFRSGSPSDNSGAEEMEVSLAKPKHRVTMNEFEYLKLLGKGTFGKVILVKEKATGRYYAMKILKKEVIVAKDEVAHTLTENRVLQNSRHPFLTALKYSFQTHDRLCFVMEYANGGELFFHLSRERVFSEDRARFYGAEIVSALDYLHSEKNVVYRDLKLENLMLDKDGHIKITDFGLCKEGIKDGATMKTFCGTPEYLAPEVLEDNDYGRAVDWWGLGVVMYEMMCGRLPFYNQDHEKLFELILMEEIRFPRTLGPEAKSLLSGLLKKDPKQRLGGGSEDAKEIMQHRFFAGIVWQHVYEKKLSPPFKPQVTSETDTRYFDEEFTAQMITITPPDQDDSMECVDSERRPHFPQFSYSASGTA
T5 sequence (Q9Y6E0 whole entry): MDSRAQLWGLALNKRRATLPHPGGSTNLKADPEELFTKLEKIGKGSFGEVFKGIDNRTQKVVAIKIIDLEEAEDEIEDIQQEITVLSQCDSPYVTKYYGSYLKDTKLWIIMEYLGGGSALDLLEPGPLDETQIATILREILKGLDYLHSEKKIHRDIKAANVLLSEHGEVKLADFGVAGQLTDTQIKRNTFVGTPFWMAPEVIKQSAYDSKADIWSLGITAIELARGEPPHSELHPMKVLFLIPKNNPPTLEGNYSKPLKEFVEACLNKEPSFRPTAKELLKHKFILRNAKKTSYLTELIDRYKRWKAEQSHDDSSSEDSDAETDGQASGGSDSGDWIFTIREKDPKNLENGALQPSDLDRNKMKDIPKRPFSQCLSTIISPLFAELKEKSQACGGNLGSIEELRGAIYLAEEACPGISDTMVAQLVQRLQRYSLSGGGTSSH
T23 sequence (Q04912 25-1400): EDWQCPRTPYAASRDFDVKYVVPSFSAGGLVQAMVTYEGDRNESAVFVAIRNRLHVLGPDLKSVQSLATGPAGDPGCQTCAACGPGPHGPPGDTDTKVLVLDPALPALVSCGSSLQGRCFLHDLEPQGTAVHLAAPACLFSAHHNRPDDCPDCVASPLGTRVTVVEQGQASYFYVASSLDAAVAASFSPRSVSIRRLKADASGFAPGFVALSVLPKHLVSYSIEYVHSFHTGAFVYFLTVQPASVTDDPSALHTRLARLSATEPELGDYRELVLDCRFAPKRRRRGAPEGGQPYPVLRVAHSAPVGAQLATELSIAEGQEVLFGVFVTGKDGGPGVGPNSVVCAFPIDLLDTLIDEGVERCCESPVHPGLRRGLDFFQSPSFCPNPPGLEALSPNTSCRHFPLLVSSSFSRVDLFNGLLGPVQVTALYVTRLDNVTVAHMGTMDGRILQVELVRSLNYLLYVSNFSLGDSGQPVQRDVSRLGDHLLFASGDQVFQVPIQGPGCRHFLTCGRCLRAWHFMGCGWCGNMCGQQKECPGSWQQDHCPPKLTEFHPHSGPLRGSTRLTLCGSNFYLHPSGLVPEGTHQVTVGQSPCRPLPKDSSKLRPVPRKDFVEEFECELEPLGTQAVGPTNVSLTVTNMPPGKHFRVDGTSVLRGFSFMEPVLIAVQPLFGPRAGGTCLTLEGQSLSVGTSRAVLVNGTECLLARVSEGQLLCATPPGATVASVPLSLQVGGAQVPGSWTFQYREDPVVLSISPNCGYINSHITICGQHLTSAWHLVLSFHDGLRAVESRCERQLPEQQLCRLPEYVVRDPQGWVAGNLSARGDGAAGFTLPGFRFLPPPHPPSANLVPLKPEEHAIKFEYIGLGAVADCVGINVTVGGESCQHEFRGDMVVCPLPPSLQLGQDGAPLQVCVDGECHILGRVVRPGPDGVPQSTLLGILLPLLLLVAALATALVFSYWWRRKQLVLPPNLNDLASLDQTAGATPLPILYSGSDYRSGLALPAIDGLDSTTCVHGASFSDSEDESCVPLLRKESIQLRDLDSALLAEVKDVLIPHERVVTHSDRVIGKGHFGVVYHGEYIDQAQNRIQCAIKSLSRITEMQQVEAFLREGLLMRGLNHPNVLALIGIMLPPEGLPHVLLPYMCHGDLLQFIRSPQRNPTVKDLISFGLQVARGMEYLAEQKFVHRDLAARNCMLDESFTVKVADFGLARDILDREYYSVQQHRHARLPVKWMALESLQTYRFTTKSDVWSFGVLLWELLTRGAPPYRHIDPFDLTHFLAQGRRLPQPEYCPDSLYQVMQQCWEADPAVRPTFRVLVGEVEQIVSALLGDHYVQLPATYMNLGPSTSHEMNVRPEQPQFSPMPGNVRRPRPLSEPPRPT
T3 sequence (Q8TDX7 whole entry): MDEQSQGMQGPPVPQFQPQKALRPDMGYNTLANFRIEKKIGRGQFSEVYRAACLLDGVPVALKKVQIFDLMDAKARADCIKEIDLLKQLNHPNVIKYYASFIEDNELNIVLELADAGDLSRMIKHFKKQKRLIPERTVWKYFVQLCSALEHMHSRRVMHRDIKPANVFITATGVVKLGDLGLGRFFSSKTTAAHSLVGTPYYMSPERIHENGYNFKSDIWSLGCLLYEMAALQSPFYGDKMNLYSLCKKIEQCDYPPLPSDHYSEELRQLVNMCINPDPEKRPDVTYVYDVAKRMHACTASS

- Avg POC Pim-1 [1]: 101.5 POC
- Avg POC Ret [2]: 89.5 POC
- Avg POC NEK7 [3]: 110 POC
- Avg POC TAO2 [4]: 97.5 POC
- Avg POC CK1_y [5]: 97 POC
- Avg POC MST3 [6]: 99 POC
- Avg POC EphA1 [7]: 98 POC
- Avg POC FGFR2 [8]: 103.5 POC
- Avg POC ARK5 [9]: 87 POC
- Avg POC Hck [10]: 67 POC
- Avg POC Flt4 [11]: 88 POC
- Avg POC p38delta [12]: 81 POC
- Avg POC Rsk4 [13]: 87 POC
- Avg POC PKCtheta [14]: 94 POC
- Avg POC AKT1 [15]: 105 POC
- Avg POC MKK7beta [16]: 132.5 POC
- Avg POC CDK2/cyclinA [17]: 98.5 POC
- Avg POC Tie2 [18]: 81.5 POC
- Avg POC Met [19]: 117 POC
- Avg POC PRKG1beta [20]: 107.5 POC
- Avg POC PTK5 [21]: 87.5 POC
- Avg POC CAMK1d [22]: 81 POC
- Avg POC FAK2 [23]: 96 POC
- Avg POC Ron [24]: 100.5 POC
- Avg POC Yes [25]: 88.5 POC
- Avg POC CAMK2b [26]: 94 POC
- Avg POC ALK [27]: 102.5 POC
- Avg POC CSK [28]: 132 POC
- Avg POC CAMK2d [29]: 126.5 POC
- Avg POC DDR2 [30]: 105.5 POC
- Avg POC VRK2 [31]: 90 POC
- Avg POC CK1delta [32]: 85.5 POC
- Avg POC TSSK1 [33]: 60 POC
- Avg POC MRCKbeta [34]: 108.5 POC
- Avg POC Fyn [35]: 103 POC
- Avg POC MAPKAP-K5 [36]: 92 POC
- Avg POC c-RAF [37]: 90 POC
- Avg POC WNK2 [38]: 109 POC
- Avg POC IKKalpha [39]: 112.5 POC
- Avg POC eEF-2K [40]: 109.5 POC
- Avg POC EphA2 [41]: 103 POC
- Avg POC ROCK-II [42]: 98 POC
Compound: COCc1ccc(C2CCC2)c(CNC(=O)Nc2c(C)c(-c3cnc(C)nc3)nn2-c2ccccc2)c1 [Example 10, 1-(2-cyclobutyl-5-(methoxymethyl)benzyl)-3-(4-methyl-3-(2-methylpyrimidin-5-yl)-1-phenyl-1H-pyrazol-5-yl)urea]

- Avg POC Pim-1 [1]: 138 POC
- Avg POC Ret [2]: 91 POC
- Avg POC NEK7 [3]: 116.5 POC
- Avg POC TAO2 [4]: 92.5 POC
- Avg POC CK1_y [5]: 97.5 POC
- Avg POC MST3 [6]: 126.5 POC
- Avg POC EphA1 [7]: 90 POC
- Avg POC FGFR2 [8]: 109.5 POC
- Avg POC ARK5 [9]: 85.5 POC
- Avg POC Hck [10]: 140 POC
- Avg POC Flt4 [11]: 94 POC
- Avg POC p38delta [12]: 85 POC
- Avg POC Rsk4 [13]: 95 POC
- Avg POC PKCtheta [14]: 112.5 POC
- Avg POC AKT1 [15]: 132 POC
- Avg POC MKK7beta [16]: 159 POC
- Avg POC CDK2/cyclinA [17]: 103.5 POC
- Avg POC Tie2 [18]: 137.5 POC
- Avg POC Met [19]: 122.5 POC
- Avg POC PRKG1beta [20]: 121 POC
- Avg POC PTK5 [21]: 92.5 POC
- Avg POC CAMK1d [22]: 111.5 POC
- Avg POC FAK2 [23]: 108 POC
- Avg POC Ron [24]: 95.5 POC
- Avg POC Yes [25]: 113 POC
- Avg POC CAMK2b [26]: 96 POC
- Avg POC ALK [27]: 116 POC
- Avg POC CSK [28]: 127.5 POC
- Avg POC CAMK2d [29]: 118 POC
- Avg POC DDR2 [30]: 111 POC
- Avg POC VRK2 [31]: 90.5 POC
- Avg POC CK1delta [32]: 127.5 POC
- Avg POC TSSK1 [33]: 80 POC
- Avg POC MRCKbeta [34]: 116.5 POC
- Avg POC Fyn [35]: 113 POC
- Avg POC MAPKAP-K5 [36]: 97.5 POC
- Avg POC c-RAF [37]: 94.5 POC
- Avg POC WNK2 [38]: 140.5 POC
- Avg POC IKKalpha [39]: 137.5 POC
- Avg POC eEF-2K [40]: 169.5 POC
- Avg POC EphA2 [41]: 126.5 POC
- Avg POC ROCK-II [42]: 107.5 POC
Compound: COCc1ccc(C(F)(F)F)c(CNC(=O)Nc2c(C)c(-c3cnn(C)c3)nn2-c2ccccc2)c1 [Example 33, 1-(1′,4-dimethyl-1-phenyl-1H,1′H-[3,4′-bipyrazol]-5-yl)-3-(5-(methoxymethyl)-2-(trifluoromethyl)benzyl)urea]
